What was measured:
[1] = test system: primary ciliated normal human bronchial epithelial cells (NHBEs); experiment: Airway surface liquid (ASL) thickness in primary NHBEs at air liquid interface; assay type: cell-based; conditions: CATR 20 μM; for effect on the ANT2 overexpression increase in ASL: BKA 4 μM apical 18 hours, apyrase 10 units 4 hours
Method: (§1) The apical surface of cells was washed once with PBS 18 hours prior to the addition of Texas Red. ASL was visualized by adding 10-kD Texas Red-dextran (17.5 μl per 12-well insert, ThermoFisher) to the apical surface of NHBE or HBEKT cultures at air liquid interface, as previously described. ASL was imaged 4 hours later by acquiring 4×4 tiled z-stacks by live-cell confocal microscopy with a heat and CO2 controlled stage (Zeiss 780 with a 40× water objective). Fluorinert ([…] was added to the top of the insert cultures immediately prior to imaging to prevent evaporation. Z-stacks were analyzed by segmentation and pixel thickness analysis. For experiments with ANT inhibitors, CATR (20 μM, Sigma) and BKA (4 μM, Sigma) in 20 μl PBS (or control PBS alone) were added to the apical surface of ALI cultures (NHBEs or HBEKTs) 18 hours prior to ASL assessment. Texas Red was added 4 hours prior to ASL testing. For apyrase treatment, 10 units of apyrase (Sigma) was added with Texas Red-dextran as described above 4 hours prior to ASL assessment.
Thickness across the sample was computed using a custom script, written in Matlab (Mathworks, Natick, MA). Briefly, for each value x in the three-dimensional images, Im(x,y, z), the resultant (y, z) slice was segmented using adaptive thresholding (Matlab command: imbinarize), followed by operations to fill holes (imfill), morphological opening (imopen) and filtering of small regions (bwareaopen) (FIG. 13a). The threshold level was adjusted after preprocessing the complete image and the process repeated. For each y in this binary image, the number of segmented pixels was counted, giving a measure of the thickness in the (x, y) location; see FIG. 13. This gave a histogram of depths over the image (FIG. 13c). An average depth was computed for all pixels in which a non-zero depth was detected (to avoid edge effects). The process was repeated by fixing y and working with the (x, z) slice. The differences between the averages were typically less than 1-2%. Thickness in pixels was converted to μm using a slice thickness of 0.46 μm, the step size used to collect the z-stack.

[2] = test system: HBEKT cells; experiment: Airway surface liquid (ASL) height in HBEKTs at air liquid interface; assay type: cell-based, human; conditions: CATR 20 μM, BKA 4 μM
Method: as §1
Thickness across the sample was computed using a custom script, written in Matlab (Mathworks, Natick, MA). […] For each y in this binary image, the number of segmented pixels was counted, giving a measure of the thickness in the (x, y) location; see FIG. 13. […]

[3] = test system: HBEKT cells; experiment: Seahorse Mitostress cellular metabolism (OCR, ATP production, proton leak); assay type: cell-based, human; conditions: 30 min after injection, CATR 20 μM, BKA 4 μM
Method: For metabolic analysis, HBEKT cells were cultured in 96-well Seahorse assay plates (Agilent) and infected with adenovirus constructs for ANT1, ANT2 and control for target overexpression at 48 hours (MOI 40, Vector BioLabs) or siRNA target suppression using siRNA and Lipofectamine as described above for ANT1, ANT2 or non-targeting control siRNA at 72 hours. After viral infection or siRNA transfection, cells were treated for 4 hours with KSFM media alone or 20% CSE. Cells were washed once in KSFM, followed by washes in buffered Seahorse Assay medium (pH 7.4) and subsequent metabolic testing according to the manufacturer's protocol (Agilent Seahorse XF96). Oligomycin (2 μM, ATPase inhibitor), FCCP (0.25 μM mitochondrial uncoupler) and a cocktail of rotenone (0.5 μM, ETC complex I inhibitor) and antimycin A (0.5 μM, ETC complex III inhibitor) were sequentially injected after three basal rates were measured. Sample measurements were normalized to total cellular mass determined by CyQuant Assay according to the manufacturer protocol (Molecular Probes, ThermoFisher). For experiments including ANT specific inhibitors, carboxyatractyloside (CATR, 20-μM, Sigma), Bongkrekic acid (BKA, 4-μM, Sigma) or vehicle control were injected into wells after basal OCR measurements were taken followed by repeat OCR measurements 30 minutes after compound injection. […]

With `CO[C@H](C/C=C\C=C\CC/C=C/C[C@H](C)/C=C/C(=C\C(=O)O)CC(=O)O)/C(C)=C\C=C(/C)C(=O)O` [Bongkrekic acid] the “effect on the ANT2 overexpression increase in ASL” value [1] was “abrogated”, the “effect on the ANT2 enhancement of ASL height” value [2] was “abolished” and the “ATP production after ANT inhibitor” value [3] was “halted”. The “basal oxidative respiration after ANT inhibitor” value [3] was “halted”.

For `C=C1[C@@H]2CC[C@H]3[C@]4(C)C[C@H](O[C@@H]5O[C@H](CO)[C@@H](OS(=O)(=O)O)[C@H](OS(=O)(=O)O)[C@H]5OC(=O)CC(C)C)CC(C(=O)O)(C(=O)O)[C@H]4CC[C@]3(C2)[C@H]1O` [carboxyatractyloside], the “ASL in control virus-treated cells” value [1] was “trend towards decreasing ASL”, the “effect on the ANT2 overexpression increase in ASL” value [1] was “abrogated” and the “effect on the ANT2 enhancement of ASL height” value [2] was “abolished”.

apyrase was tested, and the “effect on the ANT2 overexpression increase in ASL” value [1] was “reversed”.

From patent US12478661B2, “Lung cell treatments to prevent or treat disease” (THE JOHNS HOPKINS UNIVERSITY, priority 2017, dated 2025)
